# From patent US20230054976A1, “METHODS FOR INHIBITION OF ALPHA-SYNUCLEIN mRNA USING SMALL MOLECULES” (The Scripps Research Institute, priority 2019, published 2023)
# Legend:
# SH-SY5Y cells proteome = test: Proteomics profiling by mass spectrometry; format: cell-based, human; conditions: 48 h
# Procedure: Treatment with Synucleozid and siRNA for proteomics profiling using Mass Spectrometry. SH-SY5Y cells were cultured in 100 mm dishes to 60% confluency and treated with 1.5 μM of Synucleozid or DMSO, or transfected with 0.1 μM α-synuclein siRNA (ON-TARGETplus Human SNCA siRNA-SMARTpool) or scramble siRNA (ON-TARGETplus Non-targeting siRNA) using Lipofectamine RNAiMAX (Invitrogen) according to the manufacturer's instructions for 48 h. Cells were gently washed twice with ice-cold PBS, detached and lysed in PBS via sonication. […] Same samples were then denatured in 6 M urea in 50 mM NH4HCO3, reduced with 10 mM tris(2-carboxyethyl)phosphine hydrochloride (TCEP) for 30 min, and alkylated with 25 mM iodoacetamide for 30 min, in the dark at room temperature. Samples were diluted to 2 M urea with 50 mM NH4HCO3, and digested with trypsin (Thermo Scientific, 1.5 μL of 0.5 μg/μL) in the presence of 1 mM CaCl2 (100× stock in water). The digestion was performed for 12 h at 37° C. Samples were acidified to a final concentration of 5% acetic acid, desalted over a self-packed C18 spin column, and dried. Samples were then analyzed by LC-MS/MS (see below). The MS data were processed with MaxQuant.
# LC-MS/MS analysis. Peptides from samples described above were resuspended in water with 0.1% formic acid and analyzed using EASY-nLC 1200 nano-UHPLC coupled to Q Exactive HF-X Quadrupole-Orbitrap mass spectrometer (Thermo Scientific). The chromatography column consists 30 cm long, 75 μm i.d. microcapillary capped by a 5 μm tip and packed with ReproSil-Pur 120 C18-AQ 2.4 μm beads (Dr. Maisch GmbH). LC solvents had two buffers which were Buffer A (0.1% formic acid in H2O) and Buffer B (0.1% formic acid in 90% MeCN:10% H2O). Peptides from samples described above were eluted into the mass spectrometer at a flow rate of 300 nL/min over a 240 min linear gradient (5-35% Buffer B) at 65 C. Data-dependent mode (top-20, NCE 28, R=7500) was used to acquire data after full MS scan (R=60000, m/z 400-1300). Dynamic exclusion was 10 s. Peptide match was set to prefer. Isotope exclusion was enabled.
# MaxQuant analysis. MaxQuant (11) (V1.6.1.0) was used to analyze the mass spectrometer data. Data was searched against the human proteome (Uniprot) and a list of contaminants (included in MaxQuant). The first and main peptide search tolerance were set to 20 ppm and 10 ppm respectively. Fragment mass tolerance was set to 0.02 Da. The false discovery rate (FDR) was 1% for proteins, peptides, and sites identification. The minimum peptide length was set to 6 amino acids (AA). Peptide requantification, label-free quantification (MaxLFQ), “match between runs” were all enabled. The minimal number of peptides for every protein was set to 2. A variable modification was set to be methionine oxidation, and a fixed modification was set to be carbamidomethylation of cysteines in searches.
# [1] = biological target: unlabeled SNCA IRE RNA (RNA-0); test: Competitive binding assay (2-AP), RNA-0; conditions: read-out: competitive Kd; RNA-0, native SNCA IRE
# Procedure: I and I0 are the observed fluorescence intensity in the presence and absence of 2-AP RNA. Δε is the difference between the fluorescence intensity in the absence and presence of infinite 2-AP RNA. […] EC50 was calculated from Eq. (1). […] The change of fluorescence intensity was fit to Eq. (2):
# θ is the percentage of 2-AP RNA bound. [RNA] is the concentration of 2-AP RNA. EC50 is the EC50 of Synucleozid determined in the assay above. [Synucleozid] is the concentration of Synucleozid. Cc is the concentration of competitive RNA. Kd is competitive dissociation constant and A is a constant.
# [2] = test system: construct in which the SNCA 5′ UTR was absent; test: Luciferase reporter assay, construct lacking SNCA 5′ UTR, SH-SY5Y cells; format: cell-based, human; conditions: cellular
# Description: pIRES-Luc-EGFP-puro: The firefly luciferase open reading frame (ORF) was amplified with primers 1 and 2 using pmirGLO-dual-luciferase (Promega, E1330) as a template. The PCR product was then fused with linearized pIRES-EGFP-puro (Addgene plasmid #45567) digested with XhoI and SacI, placing the luciferase ORF upstream of the IRES sequence. pCDH-Luc-EGFP-puro: The firefly luciferase open reading frame (ORF) was amplified with primers 15 and 16 using pmirGLO-dual-luciferase (Promega, E1330) as a template. The PCR product was then fused with linearized pCDH-CB-IRES-copGFP-T2A-Puro digested with BamHI and NotI, placing the luciferase ORF upstream of IRES sequence. Luciferase assay. The effect of Synucleozid treatment on translation from various IRE containing transcripts was determined using luciferase reporter assay. […] Luciferase reporter activity in each lysate was monitored using the dual luciferase reporter assay system kit (Promega. Madison, Wis., USA) according to the manufacturer's instructions. Luminescence from firefly luciferase reaction was measured using a microplate luminometer (Wallac 1420, Perkin Elmer) at 485 nm excitation and 535 nm emission wavelengths. Firefly luciferase reaction was then quenched by adding Stop & Glo reagent, and the internal fluorescence from GFP measured at the same setting was used to normalize luciferase expression. […]
# [3] = Synucleozid 1.5 μM vs vehicle, siRNA 0.1 μM vs scrambled control siRNA
smiles,measurement,setting,value
N=C(N)c1ccc(Nc2ccc(-c3cc4ccc(C(=N)N)cc4[nH]3)cc2)cc1 [Synucleozid A],"effect on proteins encoded by mRNAs with IREs (ACO2, NDUFS1, CDC42BPB, FTH1)",SH-SY5Y cells proteome; 1.5 μM,Only FTH1 was affected
same,number of proteins downregulated,SH-SY5Y cells proteome; [3],143
same,number of proteins with increased expression,SH-SY5Y cells proteome; [3],140
same,"proteins affected, percentage of detected",SH-SY5Y cells proteome; [3],8%
same,"proteins downregulated, % of all proteins",SH-SY5Y cells proteome; [3],4.3%
same,"proteins with increased expression, % of all proteins",SH-SY5Y cells proteome; [3],4.2%
same,number of proteins affected among 3300 detected,"SH-SY5Y cells proteome; Synucleozid 1.5 μM vs vehicle, siRNA 0.1 μM vs scrambled control siRNA, adjusted p-value <0.01",283
same,Kd,[1],1500 ± 300 nM
same,inhibitory effect on luciferase construct lacking SNCA 5′ UTR,[2],No inhibitory effect
